Test results reported in patent US9155719B2, “N-acetyl-DL-leucine, neuroprotective and retinoprotective medicament” (priority 2010, dated 2015).

Columns and labels:
Assay type in all cases: in vivo, human
[1] = tested on: patients with Retinitis Pigmentosa; assay: Clinical observation, retinitis pigmentosa patients; details: seven patients: three 1 gr 2 times per day oral, four 2% eye drops 3 times per day
Procedure: The invention will be even further illustrated by the description of the clinical examples which follow and which, of course, are not limiting in nature. In these examples, the active ingredient, the N-acetyl-DL-leucine, was administered continuously (i.e., at least once a day) in oral or topical form, in an amount of 2 gr per day in the case of the oral form and 2% in the case of eye drops. This disorder corresponds to a dystrophy in the photoreceptors (cones and rods). It is characterized by the appearance of night blindness in infancy or adolescence, progressive contractions of the equatorial annular peripheral visual filed and results in a substantial loss in visual acuity or even blindness by adulthood. The N-acetyl-DL-leucine was used and induced an improvement of visual function: Seven patients were treated: three of them received 1 gr 2 times per day via oral administration; and four of them were subjected to a topical administration (2% eye drops), 3 times per day. All of them noticed an improvement of their visual acuity and visual field.

[2] = tested on: patients with Starpardt's Disease; assay: Clinical observation, Stargardt's disease twin patients; details: eye drops; one of two twin patients
Procedure: The invention will be even further illustrated by the description of the clinical examples which follow and which, of course, are not limiting in nature. In these examples, the active ingredient, the N-acetyl-DL-leucine, was administered continuously (i.e., at least once a day) in oral or topical form, in an amount of 2 gr per day in the case of the oral form and 2% in the case of eye drops. Two twin patients treated with N-acetyl-DL-leucine in the form of eye drops noticed an improvement of their visual acuity by 1/10 for one of them, and by 2/10 to 3/10 for the […].

[3] = tested on: patients with a macular degeneration; assay: Clinical observation, age-related or myopia-related macular degeneration; details: eleven patients; eye drops or tablets
Procedure: (§1) The invention will be even further illustrated by the description of the clinical examples which follow and which, of course, are not limiting in nature. In these examples, the active ingredient, the N-acetyl-DL-leucine, was administered continuously (i.e., at least once a day) in oral or topical form, in an amount of 2 gr per day in the case of the oral form and 2% in the case of eye drops. Eleven patients with a macular degeneration which were treated with N-acetyl-DL-leucine (eye drops or tablets) noticed an improvement of their visual acuity.

[4] = tested on: patients with known glaucoma; assay: Clinical observation, glaucomatous neuropathy or glaucoma
Procedure: as §1, with “Patients” for “Eleven patients”, “with known glaucoma experienced” for “with”, “decrease in their occular tension, and” for “macular degeneration which were treated with N-acetyl-DL-leucine (eye drops or tablets) noticed”, “acuity and visual field in a very short time as soon as the treatment was administrated. […] IV) Ametropia.” for “acuity.”

patients with myopia = assay: Clinical observation, myopia; details: seven patients; eye drops
Procedure: (§2) The invention will be even further illustrated by the description of the clinical examples which follow and which, of course, are not limiting in nature. In these examples, the active ingredient, the N-acetyl-DL-leucine, was administered continuously (i.e., at least once a day) in oral or topical form, in an amount of 2 gr per day in the case of the oral form and 2% in the case of eye drops. More particularly, but not exclusively, it relates to eyedrops composed of N-acetyl-DL-leucine, which are intended for improving (i.e., in the present case, decreasing) the effects of presbyopia, myopia, hypermetropia and astigmatism, for stabilizing them or even for reversing the evolutive course thereof. • Myopia: seven patients were evaluated and received the N-acetyl-DL-leucine in the form of eye drops. • Result: in addition to the improvement of their visual acuity, the visual field, the refractive value was reduced. One can deduce therefrom that the N-acetyl-DL-leucine not only improves vision but also treats myopia. • Presbyopia: fourteen patients received the N-acetyl-DL-leucine in the form of eye drops and experienced an improvement of their near vision and a decrease in presbyopia. […]

patients with presbyopia = assay: Clinical observation, presbyopia; details: fourteen patients; eye drops
Procedure: as §2

[5] = tested on: patients with hypermetropia; assay: Clinical observation, hypermetropia; details: eye drops
Procedure: as §2

astigmatic subjects = assay: Clinical observation, astigmatism; details: eye drops
Procedure: as §2

[6] = tested on: patients with visual difficulties at night (hemeralopia); assay: Clinical observation, night vision (hemeralopia); details: all the patients with hemeralopia
Procedure: as §1, with “drops.” for “drops. Eleven patients with a macular degeneration which were treated with N-acetyl-DL-leucine (eye drops or tablets) noticed an improvement of their visual acuity.”

[7] = tested on: "normal" patients without ocular pathology (aging individuals); assay: Clinical observation, age-related physiological vision decline / normal patients; details: in many cases; absence of any occular pathology
Procedure: as §1, with “[…] In many cases,” for “Eleven patients with a macular degeneration which were treated with”, “improved visual function (visual acuity, contrast vision and visual field) in the absence” for “(eye drops or tablets) noticed an improvement”, “any occular pathology.” for “their visual acuity.”

Structure (SMILES): CC(=O)NC(CC(C)C)C(=O)O (racemic) [N-acetyl-DL-leucine]
- visual acuity [1]: improvement
- visual field [1]: improvement
- improvement of visual acuity [2]: 1/10
- visual acuity [3]: improvement
- occular tension ([4]; in a very short time as soon as the treatment was administrated): decrease
- visual field ([4]; oral route or eye drops): regression of the deficiency
- visual acuity ([4]; oral route or topical route (eye drops)): marked improvement
- refractive value (patients with myopia): reduced
- visual acuity (patients with myopia): improvement
- visual field (patients with myopia): improvement
- near vision (patients with presbyopia): improvement
- presbyopia (patients with presbyopia): decrease
- observations in hypermetropia (near vision, ametropia) [5]: the same observations as for presbyopia
- visual acuity (astigmatic subjects): improvement
- night vision [6]: greatly improved
- visual function (visual acuity, contrast vision and visual field) [7]: improved
